Test [1] deals with Cholinesterase (Equus caballus, UniProt P81908).
Description: Inhibition of equine serum BuChE using butyrylthiocholine chloride substrate incubated for 5 mins before substrate addition measured at 3 min interval by Ellman method
Test [2] has as its target Acetylcholinesterase (Electrophorus electricus, UniProt O42275).
Description: Inhibition of electric eel AChE using acetylthiocholine chloride substrate incubated for 5 mins before substrate addition measured at 3 min interval by Ellman method
Test [3] concerns Cerebral cortex neuron. The test can be described thus: Inhibition of KCl-induced Ca2+ overload in Sprague-Dawley rat primary cortical neurons assessed as reduction in F340/F380 fluorescence ratio at 1 uM by Fura-2/AM-based fluorescence assay. Format: functional, cell-based.
The target in test [4] is Acetylcholinesterase (Electrophorus electricus) (UniProt O42275). The test can be described thus: Mixed type inhibition of electric eel AChE using acetylthiocholine chloride substrate incubated for 5 mins before substrate addition measured at 3 min interval by Lineweaver-Burk plot analysis.
Chain of Acetylcholinesterase (Electrophorus electricus) (O42275 24-633 limits assumed): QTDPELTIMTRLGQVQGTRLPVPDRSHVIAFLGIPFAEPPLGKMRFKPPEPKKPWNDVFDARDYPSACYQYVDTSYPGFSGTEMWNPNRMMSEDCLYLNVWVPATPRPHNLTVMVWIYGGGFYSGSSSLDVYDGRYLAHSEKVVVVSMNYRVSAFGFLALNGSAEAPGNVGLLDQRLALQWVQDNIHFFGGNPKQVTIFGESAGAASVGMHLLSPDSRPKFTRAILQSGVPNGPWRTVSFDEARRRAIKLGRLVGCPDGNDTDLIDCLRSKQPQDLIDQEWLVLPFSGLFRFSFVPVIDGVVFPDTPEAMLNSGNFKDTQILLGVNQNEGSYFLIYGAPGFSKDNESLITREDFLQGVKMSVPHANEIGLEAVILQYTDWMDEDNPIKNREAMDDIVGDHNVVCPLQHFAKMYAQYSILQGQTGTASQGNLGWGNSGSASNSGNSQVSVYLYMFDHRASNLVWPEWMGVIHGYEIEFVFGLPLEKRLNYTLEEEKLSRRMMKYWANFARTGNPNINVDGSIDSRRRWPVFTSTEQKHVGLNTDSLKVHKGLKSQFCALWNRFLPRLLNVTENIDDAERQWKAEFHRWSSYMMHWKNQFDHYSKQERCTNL

Each structure is given as a SMILES string. The source made the active and inactive calls. No cut-off for these calls is given here.

We go through 19 compounds from ChEMBL document CHEMBL2157968, “Novel multipotent phenylthiazole-tacrine hybrids for the inhibition of cholinesterase activity, β-amyloid aggregation and Ca²⁺ overload” (Bioorg Med Chem, 2012).

Chain of Acetylcholinesterase (O42275 whole entry): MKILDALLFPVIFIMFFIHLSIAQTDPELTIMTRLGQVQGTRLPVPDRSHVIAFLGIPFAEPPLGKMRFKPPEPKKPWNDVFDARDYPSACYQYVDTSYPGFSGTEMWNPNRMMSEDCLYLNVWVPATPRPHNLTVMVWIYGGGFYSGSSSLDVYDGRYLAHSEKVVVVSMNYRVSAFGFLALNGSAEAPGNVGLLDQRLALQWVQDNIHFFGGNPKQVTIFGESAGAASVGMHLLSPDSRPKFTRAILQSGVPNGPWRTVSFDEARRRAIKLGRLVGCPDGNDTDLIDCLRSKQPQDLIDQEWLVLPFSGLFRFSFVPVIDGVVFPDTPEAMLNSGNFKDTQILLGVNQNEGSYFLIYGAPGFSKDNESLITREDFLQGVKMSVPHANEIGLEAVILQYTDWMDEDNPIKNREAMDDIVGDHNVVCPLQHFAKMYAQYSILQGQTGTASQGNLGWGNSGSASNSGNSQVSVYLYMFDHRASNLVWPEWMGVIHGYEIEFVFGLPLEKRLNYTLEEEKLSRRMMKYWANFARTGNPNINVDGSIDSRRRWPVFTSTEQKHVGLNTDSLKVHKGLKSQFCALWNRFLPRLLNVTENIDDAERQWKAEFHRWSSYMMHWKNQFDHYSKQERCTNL
Chain of Cholinesterase (P81908 whole entry): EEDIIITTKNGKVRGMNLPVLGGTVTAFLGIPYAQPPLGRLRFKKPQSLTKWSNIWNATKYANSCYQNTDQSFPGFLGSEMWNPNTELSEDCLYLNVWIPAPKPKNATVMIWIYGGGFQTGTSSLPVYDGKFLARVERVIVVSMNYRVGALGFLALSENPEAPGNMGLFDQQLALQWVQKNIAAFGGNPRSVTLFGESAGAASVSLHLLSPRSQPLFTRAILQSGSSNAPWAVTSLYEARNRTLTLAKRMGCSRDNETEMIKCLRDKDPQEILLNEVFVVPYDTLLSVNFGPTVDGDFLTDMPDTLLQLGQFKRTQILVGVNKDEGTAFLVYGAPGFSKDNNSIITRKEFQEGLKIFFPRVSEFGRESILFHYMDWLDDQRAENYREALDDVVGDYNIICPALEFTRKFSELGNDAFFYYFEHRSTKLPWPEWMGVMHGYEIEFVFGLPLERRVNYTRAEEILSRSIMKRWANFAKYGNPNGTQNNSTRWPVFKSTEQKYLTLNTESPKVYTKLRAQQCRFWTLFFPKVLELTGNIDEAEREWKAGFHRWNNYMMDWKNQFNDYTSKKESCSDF

By IC50 is commonly meant the midpoint of a concentration-inhibition curve. Higher therefore signals weaker potency in that assay. In the case of `CCN(CCCCNc1c2c(nc3ccccc13)CCCC2)CCC(=O)Nc1nc(-c2ccc(Cl)cc2)cs1`, the IC50 in test [1] is 45.7 nM; in test [2], 120 nM.
In the case of `CCN(CCCNc1c2c(nc3ccccc13)CCCC2)CCC(=O)Nc1nc(-c2ccc(Cl)cc2)cs1`, the IC50 in test [1] was 4.17 nM; in test [2], 1200 nM.
On the same counts, the results for `O=C(CCC(=O)Nc1nc(-c2ccc(Cl)cc2)cs1)NCCCCNc1c2c(nc3ccccc13)CCCC2` are 16.6 nM and 1350 nM.
On to `CCN(CCCNc1c2c(nc3ccccc13)CCCC2)CC(=O)Nc1nc(-c2ccccc2)cs1`, for which the IC50 was 0.0447 nM in test [1] and 105 nM in test [2].
As for `O=C(CCCC(=O)Nc1nc(-c2ccccc2)cs1)NCCCNc1c2c(nc3ccccc13)CCCC2`, the IC50 is 1780 nM in test [1] and 380 nM in test [2].
In the same order, the values of `CCN(CCCNc1c2c(nc3ccccc13)CCCC2)CCC(=O)Nc1nc(-c2ccccc2)cs1` are 6.03 nM and 324 nM.
As for `CCN(CCCCNc1c2c(nc3ccccc13)CCCC2)CC(=O)Nc1nc(-c2ccc(OC)cc2)cs1`, the results for the IC50 in test [1] and in test [2] were 20.4 nM and 1660 nM, respectively.
For `CCN(CCCCNc1c2c(nc3ccccc13)CCCC2)CCC(=O)Nc1nc(-c2ccccc2)cs1`, the IC50 in test [1] was 18.2 nM; in test [2], 110 nM.
In the same order, the values of `CCN(CCCCNc1c2c(nc3ccccc13)CCCC2)CCC(=O)Nc1nc(-c2ccc(OC)cc2)cs1` are 6.61 nM and 288 nM.
On the same counts, the results for `O=C(CCCC(=O)Nc1nc(-c2ccccc2)cs1)NCCCCNc1c2c(nc3ccccc13)CCCC2` are 0.55 nM and 282 nM.
In the same order, the values of `CCN(CCCCNc1c2c(nc3ccccc13)CCCC2)CC(=O)Nc1nc(-c2ccc(Cl)cc2)cs1` are 77.6 nM and 1620 nM.
As to `CCN(CCCCNc1c2c(nc3ccccc13)CCCC2)CC(=O)Nc1nc(-c2ccccc2)cs1`, the results for the IC50 in test [1] and in test [2] were 14.8 nM and 158 nM, respectively.
For the compound `CCN(CCCCCCNc1c2c(nc3ccccc13)CCCC2)CC(=O)Nc1nc(-c2ccc(OC)cc2)cs1`, the results for the IC50 in test [1] and in test [2] were 589 nM and 158 nM, respectively. In addition, the inhibition result in test [3] was “inactive”.
In the case of `O=C(CCC(=O)Nc1nc(-c2ccccc2)cs1)NCCCCCCNc1c2c(nc3ccccc13)CCCC2`, the inhibition entry in test [4] is “Active”. Besides, the IC50 in test [1] was 0.355 nM; in test [2] it was 72.4 nM.
For the compound `CCN(CCCNc1c2c(nc3ccccc13)CCCC2)CCC(=O)Nc1nc(-c2ccc(OC)cc2)cs1`, the IC50 in test [1] is 0.479 nM; in test [2], 97.7 nM.
In the same order, the values of `O=C(CCC(=O)Nc1nc(-c2ccccc2)cs1)NCCCCNc1c2c(nc3ccccc13)CCCC2` are 0.603 nM and 490 nM.
In the same order, the values of `CCN(CCCNc1c2c(nc3ccccc13)CCCC2)CC(=O)Nc1nc(-c2ccc(OC)cc2)cs1` are 275 nM and 1380 nM.
`CCN(CCCCCCNc1c2c(nc3ccccc13)CCCC2)CC(=O)Nc1nc(-c2ccccc2)cs1`: the IC50 in test [1] was 468 nM; in test [2] it was 81.3 nM.
On the same counts, the results for `O=C(CCC(=O)Nc1nc2c(s1)CCCC2)NCCCCNc1c2c(nc3ccccc13)CCCC2` are 363 nM and 1260 nM.
